{
  "source": "the SangsterLogP compilation",
  "data": [
    {"test": "method code SF-HPLC, from DOI: 10.1080/10826079308019563", "conditions": "pH 11.0", "values": [
      {"smiles": "NC1=NCC(CN2CCN(c3ccc(F)cc3)CC2)O1", "note": "(stereo not given)", "logD": 1},
      {"smiles": "NC1=NCC(CN2CCN(c3cccc(Cl)c3)CC2)O1", "note": "(stereo not given)", "logD": 1.83},
      {"smiles": "NC1=NCC(CN2CCN(c3ccccn3)CC2)O1", "note": "(stereo not given)", "logD": 0.48},
      {"smiles": "CCOc1ccccc1N1CCN(CC2CN=C(N)O2)CC1", "note": "(stereo not given)", "logD": 1.21},
      {"smiles": "NC1=NCC(CN2CCN(c3ccccc3Cl)CC2)O1", "note": "(stereo not given)", "logD": 1.87},
      {"smiles": "COc1cccc(N2CCN(CC3CN=C(N)O3)CC2)c1", "note": "(stereo not given)", "logD": 0.87},
      {"smiles": "NC1=NCC(CN2CCN(c3ncccn3)CC2)O1", "note": "(stereo not given)", "logD": 0.21},
      {"smiles": "Cc1cccc(N2CCN(CC3CN=C(N)O3)CC2)c1C", "note": "(stereo not given)", "logD": 2.19},
      {"smiles": "NC1=NCC(CN2CCN(c3ccccc3)CC2)O1", "note": "(stereo not given)", "logD": 0.85},
      {"smiles": "NC1=NCC(CN2CCN(c3ccc(Cl)cc3)CC2)O1", "note": "(stereo not given)", "logD": 1.71},
      {"smiles": "COc1ccc(N2CCN(CC3CN=C(N)O3)CC2)cc1", "note": "(stereo not given)", "logD": 0.68},
      {"smiles": "NC1=NCC(CN2CCN(c3ccc(Cl)c(Cl)c3)CC2)O1", "note": "(stereo not given)", "logD": 2.4},
      {"smiles": "COc1ccccc1N1CCN(CC2CN=C(N)O2)CC1", "note": "(stereo not given)", "logD": 0.76},
      {"smiles": "NC1=NCC(CN2CCN(c3cccc(C(F)(F)F)c3)CC2)O1", "note": "(stereo not given)", "logD": 2.21},
      {"smiles": "NC1=NCC(CN2CCN(c3ccc(C(F)(F)F)cc3)CC2)O1", "note": "(stereo not given)", "logD": 1.23}
    ]}
  ]
}
